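Values below derive from 48-hour exposures of cells grown in 96-well plates, with endpoints linearly interpolated between the two concentrations bracketing the appropriate inhibition level. Definition used: TGI = concentration required for complete inhibition of growth.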
What was measured:
Assay in all cases: NCI tumour cell line growth inhibition, 48 h
786-0 renal = system: 786-0 renal
A498 renal = system: A498 renal
ACHN renal = system: ACHN renal
BT-549 breast = system: BT-549 breast
CAKI-1 renal = system: CAKI-1 renal
CCRF-CEM leukemia = system: CCRF-CEM leukemia
COLO 205 colon = system: COLO 205 colon
DU-145 prostate = system: DU-145 prostate
EKVX NSCLC = system: EKVX NSCLC
HCC-2998 colon = system: HCC-2998 colon
HCT-116 colon = system: HCT-116 colon
HCT-15 colon = system: HCT-15 colon
HL-60(TB) leukemia = system: HL-60(TB) leukemia
HOP-62 NSCLC = system: HOP-62 NSCLC
HOP-92 NSCLC = system: HOP-92 NSCLC
HS 578T breast = system: HS 578T breast
HT29 colon = system: HT29 colon
IGROV1 ovarian = system: IGROV1 ovarian
K-562 leukemia = system: K-562 leukemia
KM12 colon = system: KM12 colon
LOX IMVI melanoma = system: LOX IMVI melanoma
M14 melanoma = system: M14 melanoma
MALME-3M melanoma = system: MALME-3M melanoma
MCF7 breast = system: MCF7 breast
MDA-MB-231 breast = system: MDA-MB-231 breast
MDA-MB-435 = system: MDA-MB-435
MDA-N = system: MDA-N
MOLT-4 leukemia = system: MOLT-4 leukemia
NCI-H226 lung = system: NCI-H226 lung
NCI-H23 lung = system: NCI-H23 lung
NCI-H460 lung = system: NCI-H460 lung
NCI-H522 lung = system: NCI-H522 lung
NCI/ADR-RES ovarian = system: NCI/ADR-RES ovarian
OVCAR-3 ovarian = system: OVCAR-3 ovarian
OVCAR-4 ovarian = system: OVCAR-4 ovarian
OVCAR-5 ovarian = system: OVCAR-5 ovarian
OVCAR-8 ovarian = system: OVCAR-8 ovarian
PC-3 prostate = system: PC-3 prostate
RPMI-8226 leukemia = system: RPMI-8226 leukemia
RXF 393 renal = system: RXF 393 renal
SF-268 CNS = system: SF-268 CNS
SF-295 CNS = system: SF-295 CNS
SF-539 CNS = system: SF-539 CNS
SK-MEL-2 melanoma = system: SK-MEL-2 melanoma
SK-MEL-28 melanoma = system: SK-MEL-28 melanoma
SK-MEL-5 melanoma = system: SK-MEL-5 melanoma
SK-OV-3 ovarian = system: SK-OV-3 ovarian
SN12C renal = system: SN12C renal
SNB-19 CNS = system: SNB-19 CNS
SNB-75 CNS = system: SNB-75 CNS
SR leukemia = system: SR leukemia
SW-620 colon = system: SW-620 colon
T-47D breast = system: T-47D breast
TK-10 renal = system: TK-10 renal
U251 CNS = system: U251 CNS
UACC-257 melanoma = system: UACC-257 melanoma
UACC-62 melanoma = system: UACC-62 melanoma
UO-31 renal = system: UO-31 renal
A549 NSCLC = system: A549 NSCLC

SMILES: C#CC1NC(=O)C1N(CC)CC (stereo not drawn)
- TGI (786-0 renal): > 100 µM
- TGI (A498 renal): > 100 µM
- TGI (ACHN renal): > 100 µM
- TGI (BT-549 breast): > 100 µM
- TGI (CAKI-1 renal): > 100 µM
- TGI (CCRF-CEM leukemia): > 100 µM
- TGI (COLO 205 colon): > 100 µM
- TGI (DU-145 prostate): > 100 µM
- TGI (EKVX NSCLC): > 100 µM
- TGI (HCC-2998 colon): > 100 µM
- TGI (HCT-116 colon): > 100 µM
- TGI (HCT-15 colon): > 100 µM
- TGI (HL-60(TB) leukemia): > 100 µM
- TGI (HOP-62 NSCLC): > 100 µM
- TGI (HOP-92 NSCLC): > 100 µM
- TGI (HS 578T breast): > 100 µM
- TGI (HT29 colon): > 100 µM
- TGI (IGROV1 ovarian): > 100 µM
- TGI (K-562 leukemia): > 100 µM
- TGI (KM12 colon): > 100 µM
- TGI (LOX IMVI melanoma): > 100 µM
- TGI (M14 melanoma): > 100 µM
- TGI (MALME-3M melanoma): > 100 µM
- TGI (MCF7 breast): > 100 µM
- TGI (MDA-MB-231 breast): > 100 µM
- TGI (MDA-MB-435): > 100 µM
- TGI (MDA-N): > 100 µM
- TGI (MOLT-4 leukemia): > 100 µM
- TGI (NCI-H226 lung): > 100 µM
- TGI (NCI-H23 lung): > 100 µM
- TGI (NCI-H460 lung): > 100 µM
- TGI (NCI-H522 lung): > 100 µM
- TGI (NCI/ADR-RES ovarian): > 100 µM
- TGI (OVCAR-3 ovarian): > 100 µM
- TGI (OVCAR-4 ovarian): > 100 µM
- TGI (OVCAR-5 ovarian): > 100 µM
- TGI (OVCAR-8 ovarian): > 100 µM
- TGI (PC-3 prostate): > 100 µM
- TGI (RPMI-8226 leukemia): > 100 µM
- TGI (RXF 393 renal): > 100 µM
- TGI (SF-268 CNS): > 100 µM
- TGI (SF-295 CNS): > 100 µM
- TGI (SF-539 CNS): > 100 µM
- TGI (SK-MEL-2 melanoma): > 100 µM
- TGI (SK-MEL-28 melanoma): > 100 µM
- TGI (SK-MEL-5 melanoma): > 100 µM
- TGI (SK-OV-3 ovarian): > 100 µM
- TGI (SN12C renal): > 100 µM
- TGI (SNB-19 CNS): > 100 µM
- TGI (SNB-75 CNS): > 100 µM
- TGI (SR leukemia): > 100 µM
- TGI (SW-620 colon): > 100 µM
- TGI (T-47D breast): > 100 µM
- TGI (TK-10 renal): > 100 µM
- TGI (U251 CNS): > 100 µM
- TGI (UACC-257 melanoma): > 100 µM
- TGI (UACC-62 melanoma): > 100 µM
- TGI (UO-31 renal): > 100 µM

SMILES: Cc1c(F)c(NC(=O)CN(C)C)c2c(=O)cc(-c3ccc(NC(=O)CN(C)C)c(F)c3)oc2c1F
- TGI (786-0 renal): 31.1 µM
- TGI (A498 renal): 3.64 µM
- TGI (A549 NSCLC): 35.6 µM
- TGI (ACHN renal): 29.6 µM
- TGI (BT-549 breast): 35.3 µM
- TGI (CAKI-1 renal): 23.1 µM
- TGI (CCRF-CEM leukemia): 57 µM
- TGI (COLO 205 colon): 38 µM
- TGI (DU-145 prostate): 26.5 µM
- TGI (HCC-2998 colon): 19 µM
- TGI (HCT-116 colon): 29.3 µM
- TGI (HCT-15 colon): 33.7 µM
- TGI (HL-60(TB) leukemia): 35.9 µM
- TGI (HOP-62 NSCLC): 32.5 µM
- TGI (HS 578T breast): 56.5 µM
- TGI (HT29 colon): 33.8 µM
- TGI (IGROV1 ovarian): 32.1 µM
- TGI (K-562 leukemia): 37.5 µM
- TGI (KM12 colon): 30.5 µM
- TGI (LOX IMVI melanoma): 30.9 µM
- TGI (M14 melanoma): 31.7 µM
- TGI (MALME-3M melanoma): 45.9 µM
- TGI (MCF7 breast): 28.3 µM
- TGI (MDA-MB-231 breast): 26.9 µM
- TGI (MDA-MB-435): 26.5 µM
- TGI (MDA-N): 34 µM
- TGI (MOLT-4 leukemia): 31.9 µM
- TGI (NCI-H226 lung): 29.2 µM
- TGI (NCI-H23 lung): 36.1 µM
- TGI (NCI-H460 lung): 29 µM
- TGI (NCI-H522 lung): 41.4 µM
- TGI (NCI/ADR-RES ovarian): 39.6 µM
- TGI (OVCAR-4 ovarian): 37.6 µM
- TGI (OVCAR-5 ovarian): 41.1 µM
- TGI (OVCAR-8 ovarian): 37.5 µM
- TGI (PC-3 prostate): 33.8 µM
- TGI (RPMI-8226 leukemia): 38.9 µM
- TGI (RXF 393 renal): 25.6 µM
- TGI (SF-268 CNS): 38.3 µM
- TGI (SF-295 CNS): 28.9 µM
- TGI (SF-539 CNS): 31.2 µM
- TGI (SK-MEL-2 melanoma): 37.1 µM
- TGI (SK-MEL-28 melanoma): 40.9 µM
- TGI (SK-MEL-5 melanoma): 30.6 µM
- TGI (SK-OV-3 ovarian): 30.5 µM
- TGI (SN12C renal): 36.3 µM
- TGI (SNB-19 CNS): 41.2 µM
- TGI (SR leukemia): 6.15 µM
- TGI (SW-620 colon): 46.9 µM
- TGI (T-47D breast): 55.8 µM
- TGI (TK-10 renal): 23.4 µM
- TGI (U251 CNS): 27.2 µM
- TGI (UACC-257 melanoma): 48.1 µM
- TGI (UACC-62 melanoma): 34.8 µM
- TGI (UO-31 renal): 26.9 µM
